Test [1] has as its system [Candida] sake. As to the kind of experiment: Antifungal activity against Candida sake at 10 mg/ml after 48 hrs by agar diffusion assay. Format: functional. The settings on record: Fermentozyma sake, read-out: DIZ. In general terms: A growth-free zone around the sample is the usual read-out of agar diffusion tests.
In test [2] the test system is Nakaseomyces glabratus. As to the kind of experiment: Antifungal activity against Candida glabrata ATCC MYA 2950 at 10 mg/ml after 48 hrs by agar diffusion assay. The following applies: ATCC MYA 2950, 48 h, read-out: DIZ. The test is classed as functional.
The subject of test [3] is Candida albicans. Nature of the test: Antifungal activity against Candida albicans ATCC 10231 at 10 mg/ml after 48 hrs by agar diffusion assay. Format: functional. The following applies: ATCC 10231, 48 h, read-out: DIZ.
Test [4] deals with Pseudomonas aeruginosa. Nature of the test: Antibacterial activity against Pseudomonas aeruginosa ATCC 27853 at 10 mg/ml after 24 hrs by agar diffusion assay. Format: functional. The following applies: ATCC 27853, 24 h, read-out: DIZ.
The subject of test [5] is Escherichia coli. Nature of the test: Antibacterial activity against Escherichia coli ATCC 25922 at 10 mg/ml after 24 hrs by agar diffusion assay. The test is classed as functional. The following applies: ATCC 25922, 24 h, read-out: DIZ.
In test [6] the test system is Bacillus subtilis. As to the kind of experiment: Antibacterial activity against Bacillus subtilis at 10 mg/ml after 24 hrs by agar diffusion assay. The test is classed as functional. The following applies: read-out: DIZ.
For test [7], the system named is Bacillus cereus. As to the kind of experiment: Antibacterial activity against Bacillus cereus ATCC 14579 at 10 mg/ml after 24 hrs by agar diffusion assay. Format: functional. The settings on record: ATCC 14579, 24 h, read-out: DIZ.
Test [8] relates to Micrococcus luteus. As to the kind of experiment: Antibacterial activity against Sarcina lutea ATCC 9341 at 10 mg/ml after 24 hrs by agar diffusion assay. The settings on record: ATCC 9341, 24 h, read-out: DIZ. Format: functional.
The subject of test [9] is Staphylococcus aureus. Nature of the test: Antibacterial activity against Staphylococcus aureus ATCC 25923 at 10 mg/ml after 24 hrs by agar diffusion assay. The settings on record: ATCC 25923, 24 h, read-out: DIZ. The test is classed as functional.
Test [10] deals with Pseudomonas aeruginosa. As to the kind of experiment: Antibacterial activity against Pseudomonas aeruginosa ATCC 27853 at 25 ug/disk after 24 hrs by agar diffusion assay. Format: functional. The following applies: ATCC 27853, 24 h, read-out: DIZ.
The test system of test [11] is Escherichia coli. As to the kind of experiment: Antibacterial activity against Escherichia coli ATCC 25922 at 25 ug/disk after 24 hrs by agar diffusion assay. The test is classed as functional. The following applies: ATCC 25922, 24 h, read-out: DIZ.
Test [12] relates to Bacillus subtilis. Nature of the test: Antibacterial activity against Bacillus subtilis at 25 ug/disk after 24 hrs by agar diffusion assay. The test is classed as functional. The following applies: read-out: DIZ.
For test [13], the system named is Bacillus cereus. Nature of the test: Antibacterial activity against Bacillus cereus ATCC 14579 at 25 ug/disk after 24 hrs by agar diffusion assay. The test is classed as functional. The settings on record: ATCC 14579, 24 h, read-out: DIZ.
For test [14], the system named is Micrococcus luteus. As to the kind of experiment: Antibacterial activity against Sarcina lutea ATCC 9341 at 25 ug/disk after 24 hrs by agar diffusion assay. Format: functional. The settings on record: ATCC 9341, 24 h, read-out: DIZ.
In test [15] the test system is Staphylococcus aureus. Nature of the test: Antibacterial activity against Staphylococcus aureus ATCC 25923 at 25 ug/disk after 24 hrs by agar diffusion assay. The test is classed as functional. The settings on record: ATCC 25923, 24 h, read-out: DIZ.
The test system of test [16] is Pseudomonas aeruginosa. Nature of the test: Antibacterial activity against Pseudomonas aeruginosa ATCC 27853 at 30 ug/disk after 24 hrs by agar diffusion assay. The following applies: ATCC 27853, 24 h, read-out: DIZ. The test is classed as functional.
Test [17] relates to Escherichia coli. As to the kind of experiment: Antibacterial activity against Escherichia coli ATCC 25922 at 30 ug/disk after 24 hrs by agar diffusion assay. The following applies: ATCC 25922, 24 h, read-out: DIZ. The test is classed as functional.
Test [18] deals with Bacillus subtilis. As to the kind of experiment: Antibacterial activity against Bacillus subtilis at 30 ug/disk after 24 hrs by agar diffusion assay. Format: functional. The settings on record: read-out: DIZ.
Test [19] has as its system Bacillus cereus. Nature of the test: Antibacterial activity against Bacillus cereus ATCC 14579 at 30 ug/disk after 24 hrs by agar diffusion assay. The settings on record: ATCC 14579, 24 h, read-out: DIZ. The test is classed as functional.
The subject of test [20] is Micrococcus luteus. Nature of the test: Antibacterial activity against Sarcina lutea ATCC 9341 at 30 ug/disk after 24 hrs by agar diffusion assay. The test is classed as functional. The settings on record: ATCC 9341, 24 h, read-out: DIZ.
For test [21], the system named is Staphylococcus aureus. Nature of the test: Antibacterial activity against Staphylococcus aureus ATCC 25923 at 30 ug/disk after 24 hrs by agar diffusion assay. The settings on record: ATCC 25923, 24 h, read-out: DIZ. The test is classed as functional.
The test system of test [22] is [Candida] sake. Nature of the test: Antifungal activity against Candida sake 100 mg/disk after 48 hrs by agar diffusion assay. The test is classed as functional, organism-based.
For test [23], the system named is Nakaseomyces glabratus. Nature of the test: Antifungal activity against Candida glabrata ATCC MYA 2950 100 mg/disk after 48 hrs by agar diffusion assay. The test is classed as functional, organism-based.
In test [24] the test system is Candida albicans. Nature of the test: Antifungal activity against Candida albicans ATCC 10231 at 100 mg/disk after 48 hrs by agar diffusion assay. The test is classed as functional, organism-based.

`C=C1CC[C@H]2C(C)(C)CCC[C@]2(C)[C@H]1CC(=O)Nc1ccncn1`: the zone of inhibition at 10000 µg/mL in test [Candida] sake [1] turned out to be 0 mm; in the test on Nakaseomyces glabratus [2], 0 mm; with Candida albicans [3], 0 mm; in the test with Pseudomonas aeruginosa [4] it was 0 mm; in the test with Escherichia coli [5], 12 mm; in the test with Bacillus subtilis [6] it was 7 mm. For the same compound, the results for the zone of inhibition at 10000 µg/mL in the test on Bacillus cereus [7], in the test with Micrococcus luteus [8] and with Staphylococcus aureus [9] were 10 mm, 18 mm and 15 mm, respectively.

`CC1(C)S[C@@H]2[C@H](NC(=O)[C@H](N)c3ccccc3)C(=O)N2[C@H]1C(=O)O` [AMPICILLIN]: the zone of inhibition at 25 µg/disc in the test on Pseudomonas aeruginosa [10] was 0 mm; with Escherichia coli [11] it was 20 mm; in the test on Bacillus subtilis [12] it was 25 mm; in the test on Bacillus cereus [13], 0 mm; in the test on Micrococcus luteus [14], 30 mm; in the test with Staphylococcus aureus [15], 25 mm.

In the case of `C=C1CC[C@H]2C(C)(C)CCC[C@]2(C)[C@H]1CC(=O)N(C(=O)C[C@H]1C(=C)CC[C@H]2C(C)(C)CCC[C@]12C)c1ncccn1`, the zone of inhibition at 10000 µg/mL amounted to 0 mm in test [Candida] sake [1]; 0 mm in the test with Nakaseomyces glabratus [2]; 0 mm in the test with Candida albicans [3]; 10 mm with Pseudomonas aeruginosa [4]; 0 mm in the test on Escherichia coli [5]; 0 mm with Bacillus subtilis [6]. Moreover, the zone of inhibition at 10000 µg/mL in the test on Bacillus cereus [7] is 0 mm; with Micrococcus luteus [8] it was 0 mm; with Staphylococcus aureus [9] it was 10 mm.

Turning to `O=C(N[C@H](CO)[C@H](O)c1ccc([N+](=O)[O-])cc1)C(Cl)Cl` [CHLORAMPHENICOL], the zone of inhibition at 30 µg/disc stood at 19 mm with Pseudomonas aeruginosa [16]; 29 mm with Escherichia coli [17]; 31 mm in the test on Bacillus subtilis [18]; 28 mm with Bacillus cereus [19]; 30 mm with Micrococcus luteus [20]; 25 mm with Staphylococcus aureus [21].

As for NYSTATIN, the figures for the inhibition zone (IZ) (in test [Candida] sake [22]; in the test on Nakaseomyces glabratus [23]; in the test on Candida albicans [24]) were 31 mm, 26 mm and 29 mm, respectively.

Turning to `C=C1CC[C@H]2C(C)(C)CCC[C@]2(C)[C@H]1CC(=O)Nc1cnccn1`, the zone of inhibition at 10000 µg/mL (in test [Candida] sake [1]; with Nakaseomyces glabratus [2]; in the test on Candida albicans [3]; in the test with Pseudomonas aeruginosa [4]; with Escherichia coli [5]; in the test on Bacillus subtilis [6]) was 0 mm throughout. In addition, the zone of inhibition at 10000 µg/mL with Bacillus cereus [7] amounted to 10 mm; in the test on Micrococcus luteus [8], 0 mm; with Staphylococcus aureus [9] it was 15 mm.

For `C=C1CC[C@H]2C(C)(C)CCC[C@]2(C)[C@H]1CC(=O)N(C(=O)NC1CCCCC1)C1CCCCC1`, the zone of inhibition at 10000 µg/mL (in test [Candida] sake [1]; in the test with Nakaseomyces glabratus [2]; in the test with Candida albicans [3]; in the test on Pseudomonas aeruginosa [4]; in the test on Escherichia coli [5]; in the test with Bacillus subtilis [6]) was 0 mm in each case. For the same compound, the figures for the zone of inhibition at 10000 µg/mL with Bacillus cereus [7], in the test with Micrococcus luteus [8] and in the test on Staphylococcus aureus [9] were 11 mm, 0 mm and 19 mm, respectively.

In the case of `C=C1CC[C@H]2C(C)(C)CCC[C@]2(C)[C@H]1CC(=O)Nc1ncccn1`, the zone of inhibition at 10000 µg/mL in test [Candida] sake [1] was found to be 0 mm; in the test on Nakaseomyces glabratus [2] it was 0 mm; with Candida albicans [3], 0 mm; in the test with Pseudomonas aeruginosa [4], 0 mm; with Escherichia coli [5] it was 10 mm; with Bacillus subtilis [6], 7 mm. For the same compound, the zone of inhibition at 10000 µg/mL with Bacillus cereus [7] stood at 12 mm; in the test on Micrococcus luteus [8], 19 mm; in the test on Staphylococcus aureus [9], 14 mm.

Source of the values: ChEMBL document CHEMBL2429845, “Design, synthesis, and antimicrobial activity of some novel homodrimane sesquiterpenoids with diazine skeleton” (2013).
